From patent publication US10875871B2, “Photosensitizer” (Tampereen Korkeakoulusäätiö sr, priority 2016, dated 2020)

Experiments:
[1] = test system: E. coli MG1655; experiment: Colony forming unit (CFU) method, solar simulator; assay type: cell-based, Escherichia coli; conditions: for Colony counts after incubation / CFU/ml / Colony counts after incubation (Average) / Colony counts after incubation (Duplicate): E. Coli
Method: (§1) The antimicrobial efficiency of the dye was confirmed by CFU method using microbes E. coli MG1655 (E. coli Genetic Resources at Yale) and A. baylyi ADP1 (ATCC 33305). […] The microplate was illuminated in the solar simulator for 1 hour. UV-IR radiations were cut off using a combination of KG3 band pass filter (315-750 nm transmittance) and ? c-17 yellow filter (transmittance >485 nm). Similarly, light control samples were prepared by depositing microbial medium over dyed and un-dyed samples by covering microplate with aluminum foil for 1 h at room temperature. After 1 h of illumination or incubation, the microbes were extracted with LB medium (10 g/l tryptone, 5 g/l yeast extract, 5 g/l NaCl) (975 μl) and serial dilutions were made from each extract. The dilutions were then plated on LA agar plates and incubated at 30° C. overnight. The number of colonies grown on the agar plate was counted and CFUs per milliliter were calculated from it.

[2] = test system: E. coli; experiment: Antimicrobial inactivation under consumer LED lamp; assay type: cell-based, Escherichia coli; conditions: dyed filter paper, 1 h illumination from LED lamp
Method: as §1
The spectrum of light emitted from the lamp prior to the experiments was measured. […] In addition, the power density of the lamp was also measured at different distances. […] The absorptance of phthalocyanine Pc4 and porphyrin ZnPf papers were calculated from reflectance and transmittance measurement of dyed papers using integrating sphere (IS) detector. The absorptance profiles were very similar to the absorbance measurement in solution. […]

[3] = Pc4 filter paper-Dark 1 h, dilution factor 2.50E−06, 0.1 ml plated
[4] = illuminated Pc4 filter paper 1 h, dilution factor 2.50E−02, 0.1 ml plated
[5] = illuminated Pc4 filter paper 1 h, dilution factor 2.50E−03, 0.1 ml plated
[6] = illuminated Pc4 filter paper 1 h, dilution factor 2.50E−04, 0.1 ml plated
[7] = illuminated Pc4 filter paper 1 h, dilution factor 2.50E−05, 0.1 ml plated
[8] = illuminated Pc4 filter paper 1 h, dilution factor 2.50E−06, 0.1 ml plated

Substance: {4,4′,4″,4″-(29H,31H-phthalocyanine-1(4),8(11),15(18),22(25)-tetrayl-κ 4N29,N30,N31,N32)tetrakis [1-methylpyridiniumato(2-)]}zinc(4+) tetraiodide [Pc4]
- Colony counts after incubation ([1]; Pc4 filter paper-Dark 1 h, dilution factor 2.50E−02, 0.1 ml plated): Too many to count
- Colony counts after incubation ([1]; Pc4 filter paper-Dark 1 h, dilution factor 2.50E−03, 0.1 ml plated): Too many to count
- Colony counts after incubation ([1]; Pc4 filter paper-Dark 1 h, dilution factor 2.50E−04, 0.1 ml plated): Too many to count
- Colony counts after incubation ([1]; Pc4 filter paper-Dark 1 h, dilution factor 2.50E−05, 0.1 ml plated): Too many to count
- CFU/ml [1, 3]: 1.51E+09 CFU/ml
- Colony counts after incubation [1, 3]: 327
- Colony counts after incubation (Average) [1, 3]: 378
- Colony counts after incubation (Duplicate) [1, 3]: 429
- CFU/ml [1, 4]: 0.00E+00 CFU/ml
- Colony counts after incubation [1, 4]: 0
- Colony counts after incubation (Average) [1, 4]: 0
- Colony counts after incubation (Duplicate) [1, 4]: 0
- CFU/ml [1, 5]: 0.00E+00 CFU/ml
- Colony counts after incubation [1, 5]: 0
- Colony counts after incubation (Average) [1, 5]: 0
- Colony counts after incubation (Duplicate) [1, 5]: 0
- CFU/ml [1, 6]: 0.00E+00 CFU/ml
- Colony counts after incubation [1, 6]: 0
- Colony counts after incubation (Average) [1, 6]: 0
- Colony counts after incubation (Duplicate) [1, 6]: 0
- CFU/ml [1, 7]: 0.00E+00 CFU/ml
- Colony counts after incubation [1, 7]: 0
- Colony counts after incubation (Average) [1, 7]: 0
- Colony counts after incubation (Duplicate) [1, 7]: 0
- CFU/ml [1, 8]: 0.00E+00 CFU/ml
- Colony counts after incubation [1, 8]: 0
- Colony counts after incubation (Average) [1, 8]: 0
- Colony counts after incubation (Duplicate) [1, 8]: 0
- microbial growth on plates ([1]; E. coli, illuminated Pc4 filter paper, 1 hour solar simulator): No microbial growth
- inactivation of microorganisms [2]: complete inactivation
